The values that follow come from ChEMBL document CHEMBL5291721, “A preclinical secondary pharmacology resource illuminates target-adverse drug reaction associations of marketed drugs” (Nat Commun, 2023).

The target of assay [1] is T1, 5-hydroxytryptamine receptor 1A (Homo sapiens, UniProt P08908).
T1 sequence (P08908 whole entry): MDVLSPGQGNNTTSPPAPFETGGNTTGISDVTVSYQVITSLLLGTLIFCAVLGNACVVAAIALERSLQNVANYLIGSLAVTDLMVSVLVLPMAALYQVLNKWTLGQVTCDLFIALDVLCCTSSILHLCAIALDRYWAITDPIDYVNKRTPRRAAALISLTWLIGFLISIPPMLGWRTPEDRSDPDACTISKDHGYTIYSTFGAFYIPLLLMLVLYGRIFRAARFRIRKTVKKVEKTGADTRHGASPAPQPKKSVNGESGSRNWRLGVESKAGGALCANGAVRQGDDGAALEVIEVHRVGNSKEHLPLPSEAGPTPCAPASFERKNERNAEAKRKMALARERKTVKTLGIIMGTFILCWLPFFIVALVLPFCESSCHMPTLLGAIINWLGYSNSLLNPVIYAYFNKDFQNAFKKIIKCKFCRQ
It is filed as functional, cell-based.

The target of assay [2] is Sodium-dependent serotonin transporter (Homo sapiens, UniProt P31645).
Assay [3] has as its target Cannabinoid receptor 1 (Homo sapiens, UniProt P21554). In kind it is functional, cell-based.
The target in assay [4] is T2, Gastrin/cholecystokinin type B receptor (Homo sapiens, UniProt P32239).
T2 sequence (P32239 whole entry): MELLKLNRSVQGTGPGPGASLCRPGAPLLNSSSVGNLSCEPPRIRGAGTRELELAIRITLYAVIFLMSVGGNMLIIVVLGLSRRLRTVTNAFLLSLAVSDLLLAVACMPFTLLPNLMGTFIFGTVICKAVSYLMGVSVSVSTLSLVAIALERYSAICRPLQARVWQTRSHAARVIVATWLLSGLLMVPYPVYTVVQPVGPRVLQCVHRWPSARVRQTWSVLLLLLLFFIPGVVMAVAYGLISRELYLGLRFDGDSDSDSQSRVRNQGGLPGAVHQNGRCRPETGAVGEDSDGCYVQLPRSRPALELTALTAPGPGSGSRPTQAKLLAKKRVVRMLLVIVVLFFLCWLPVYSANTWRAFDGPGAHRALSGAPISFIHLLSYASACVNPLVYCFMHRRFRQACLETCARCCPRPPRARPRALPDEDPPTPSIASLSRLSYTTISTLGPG

Assay [5] addresses T3, Thromboxane A2 receptor (Homo sapiens, UniProt P21731).
T3 sequence (P21731 whole entry): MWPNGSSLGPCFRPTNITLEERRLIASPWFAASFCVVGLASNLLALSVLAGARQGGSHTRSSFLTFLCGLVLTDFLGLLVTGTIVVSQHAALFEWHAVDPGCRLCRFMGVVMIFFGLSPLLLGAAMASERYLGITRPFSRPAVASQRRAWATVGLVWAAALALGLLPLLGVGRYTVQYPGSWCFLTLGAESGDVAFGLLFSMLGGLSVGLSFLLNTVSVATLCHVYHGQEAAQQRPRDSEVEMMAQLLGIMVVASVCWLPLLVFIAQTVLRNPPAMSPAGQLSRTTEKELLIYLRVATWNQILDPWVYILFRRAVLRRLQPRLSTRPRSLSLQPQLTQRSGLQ

The target in assay [6] is 5-hydroxytryptamine receptor 2B (Homo sapiens, UniProt P41595). It is filed as functional, cell-based.
In assay [7] the target is T4, Adenosine receptor A3 (Homo sapiens, UniProt P0DMS8).
T4 sequence (P0DMS8 whole entry): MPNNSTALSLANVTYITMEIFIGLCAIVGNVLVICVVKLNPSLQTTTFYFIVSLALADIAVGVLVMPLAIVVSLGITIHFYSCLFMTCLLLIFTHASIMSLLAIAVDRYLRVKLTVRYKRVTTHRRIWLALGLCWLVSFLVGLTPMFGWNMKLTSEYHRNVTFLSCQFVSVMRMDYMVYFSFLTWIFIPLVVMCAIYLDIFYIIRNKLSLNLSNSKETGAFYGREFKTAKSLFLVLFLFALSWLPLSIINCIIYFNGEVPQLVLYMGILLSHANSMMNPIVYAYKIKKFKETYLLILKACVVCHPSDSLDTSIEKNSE

The target of assay [8] is Prothrombin (Homo sapiens, UniProt P00734). In kind it is functional.
For assay [9], the target named is Sodium-dependent noradrenaline transporter (Homo sapiens, UniProt P23975).
Assay [10] has as its target T3, Thromboxane A2 receptor. In kind it is functional, cell-based.
In assay [11] the target is T5, Estrogen receptor (Homo sapiens, UniProt P03372).
T5 sequence (P03372 whole entry): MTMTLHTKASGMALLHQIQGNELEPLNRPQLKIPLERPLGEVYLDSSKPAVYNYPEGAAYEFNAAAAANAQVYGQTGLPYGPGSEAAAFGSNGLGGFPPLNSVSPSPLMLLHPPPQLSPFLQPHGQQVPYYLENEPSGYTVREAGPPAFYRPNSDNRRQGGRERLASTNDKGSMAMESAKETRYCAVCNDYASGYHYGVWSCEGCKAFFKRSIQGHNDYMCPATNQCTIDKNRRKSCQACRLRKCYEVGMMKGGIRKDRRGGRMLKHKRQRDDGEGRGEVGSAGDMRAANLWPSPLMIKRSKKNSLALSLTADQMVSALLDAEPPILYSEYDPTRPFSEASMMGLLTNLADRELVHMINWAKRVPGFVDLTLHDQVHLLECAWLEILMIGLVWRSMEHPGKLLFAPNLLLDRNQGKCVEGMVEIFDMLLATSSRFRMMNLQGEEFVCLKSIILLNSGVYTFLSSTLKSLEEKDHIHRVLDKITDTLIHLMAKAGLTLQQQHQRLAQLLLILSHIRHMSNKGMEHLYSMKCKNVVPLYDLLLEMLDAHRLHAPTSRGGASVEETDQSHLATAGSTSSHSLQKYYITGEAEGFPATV
Also: assay procedure not described here.

Sodium-dependent noradrenaline transporter, sequence (P23975 whole entry): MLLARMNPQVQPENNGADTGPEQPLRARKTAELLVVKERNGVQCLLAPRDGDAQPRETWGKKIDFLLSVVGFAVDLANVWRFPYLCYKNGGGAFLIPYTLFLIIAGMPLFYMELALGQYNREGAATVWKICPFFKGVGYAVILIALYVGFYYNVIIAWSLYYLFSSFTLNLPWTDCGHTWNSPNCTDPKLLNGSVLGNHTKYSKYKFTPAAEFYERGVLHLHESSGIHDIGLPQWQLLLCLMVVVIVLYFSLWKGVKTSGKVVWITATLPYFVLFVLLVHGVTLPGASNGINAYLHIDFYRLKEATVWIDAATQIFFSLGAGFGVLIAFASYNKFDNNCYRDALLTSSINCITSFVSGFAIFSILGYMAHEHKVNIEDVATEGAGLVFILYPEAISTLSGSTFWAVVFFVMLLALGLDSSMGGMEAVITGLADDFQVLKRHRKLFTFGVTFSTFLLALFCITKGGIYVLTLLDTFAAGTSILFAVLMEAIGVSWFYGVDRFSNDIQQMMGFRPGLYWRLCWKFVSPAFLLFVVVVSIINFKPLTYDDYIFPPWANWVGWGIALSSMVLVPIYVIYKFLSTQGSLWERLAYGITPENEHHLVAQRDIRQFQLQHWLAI
Sodium-dependent serotonin transporter, sequence (P31645 whole entry): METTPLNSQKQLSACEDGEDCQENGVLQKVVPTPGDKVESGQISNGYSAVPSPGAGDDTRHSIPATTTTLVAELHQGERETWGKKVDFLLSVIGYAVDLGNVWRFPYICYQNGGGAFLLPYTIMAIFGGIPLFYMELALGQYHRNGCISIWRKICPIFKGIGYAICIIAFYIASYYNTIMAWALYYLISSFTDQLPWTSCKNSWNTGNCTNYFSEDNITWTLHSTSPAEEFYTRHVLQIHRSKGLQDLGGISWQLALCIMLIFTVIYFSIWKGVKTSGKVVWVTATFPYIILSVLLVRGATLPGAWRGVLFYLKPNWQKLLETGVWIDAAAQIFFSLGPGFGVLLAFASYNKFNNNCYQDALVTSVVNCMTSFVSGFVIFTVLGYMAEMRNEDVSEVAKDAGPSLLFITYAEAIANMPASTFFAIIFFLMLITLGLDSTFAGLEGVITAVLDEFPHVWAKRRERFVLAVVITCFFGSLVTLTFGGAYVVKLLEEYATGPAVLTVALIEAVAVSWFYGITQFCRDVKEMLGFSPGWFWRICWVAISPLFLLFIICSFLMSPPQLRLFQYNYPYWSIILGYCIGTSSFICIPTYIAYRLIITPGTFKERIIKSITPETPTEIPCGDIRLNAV
5-hydroxytryptamine receptor 2B, sequence (P41595 whole entry): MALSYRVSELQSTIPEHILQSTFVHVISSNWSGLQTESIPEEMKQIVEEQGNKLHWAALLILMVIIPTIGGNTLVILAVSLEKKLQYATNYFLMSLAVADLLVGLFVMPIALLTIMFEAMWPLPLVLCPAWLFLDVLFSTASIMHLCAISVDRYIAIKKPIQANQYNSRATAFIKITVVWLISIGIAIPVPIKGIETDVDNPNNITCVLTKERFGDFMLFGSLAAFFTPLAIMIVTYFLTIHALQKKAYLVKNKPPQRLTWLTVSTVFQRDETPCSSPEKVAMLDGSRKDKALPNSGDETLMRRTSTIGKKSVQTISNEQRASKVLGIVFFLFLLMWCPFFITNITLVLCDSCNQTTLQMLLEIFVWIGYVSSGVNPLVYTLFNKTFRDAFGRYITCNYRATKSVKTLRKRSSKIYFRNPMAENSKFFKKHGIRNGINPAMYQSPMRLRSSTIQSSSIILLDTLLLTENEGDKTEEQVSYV
Cannabinoid receptor 1, sequence (P21554 whole entry): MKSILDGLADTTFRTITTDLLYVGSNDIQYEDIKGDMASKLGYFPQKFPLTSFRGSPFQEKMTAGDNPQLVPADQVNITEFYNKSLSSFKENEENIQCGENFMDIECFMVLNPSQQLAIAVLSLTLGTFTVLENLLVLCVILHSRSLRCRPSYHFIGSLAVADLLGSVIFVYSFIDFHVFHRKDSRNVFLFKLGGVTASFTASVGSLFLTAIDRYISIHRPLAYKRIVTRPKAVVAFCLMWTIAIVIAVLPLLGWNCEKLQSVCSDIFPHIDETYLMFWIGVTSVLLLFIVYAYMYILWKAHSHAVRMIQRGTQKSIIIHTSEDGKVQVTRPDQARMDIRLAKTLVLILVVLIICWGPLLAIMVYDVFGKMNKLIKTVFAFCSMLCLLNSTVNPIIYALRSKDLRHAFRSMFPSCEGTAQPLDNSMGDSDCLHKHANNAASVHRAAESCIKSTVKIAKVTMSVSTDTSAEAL

As usually defined, the AC50 is the concentration giving half of the maximal activity seen. A higher AC50 goes with weaker potency. Consider `CC(=O)NCCCS(=O)(=O)O` [ACAMPROSATE], for which the AC50 in [1], in assay [2], in assay [3], in [4], in [5] and in assay [6] was greater than 30 µM each time.
Regarding `C[C@]12CC[C@@H]3c4ccc(O)cc4CC[C@H]3[C@@H]1C[C@@H](O)[C@@H]2O` [ESTRIOL], the AC50 in [7], in assay [8], in assay [9] and in [10] was greater than 30 µM throughout.
Turning to `Cc1nc([N+](=O)[O-])cn1-c1ccc([N+](=O)[O-])cc1` [NITREFAZOLE], the half-maximal activity concentration (AC50) in assay [2], in [3], in assay [4], in [5] and in assay [6] was greater than 30 µM throughout.
For `CN1C(C(=O)Nc2ccccn2)=C(O)c2sc(Cl)cc2S1(=O)=O` [LORNOXICAM], the AC50 in assay [1] is greater than 10 µM; in [2], greater than 30 µM; in assay [3] it was greater than 30 µM; in assay [4], greater than 30 µM; in assay [5], greater than 30 µM; in assay [6], greater than 10 µM.
Regarding `CNC(=O)c1ccccc1Sc1ccc2c(/C=C/c3ccccn3)n[nH]c2c1` [AXITINIB], the AC50 in assay [1] is greater than 30 µM; in assay [2], greater than 30 µM; in assay [3] it was greater than 30 µM; in assay [5], 8.66 µM; in assay [6] it was greater than 30 µM.
`CC(C)(S)[C@@H](N)C(=O)O` [PENICILLAMINE]: the AC50 in [7], in assay [8], in assay [9] and in assay [10] was greater than 30 µM in each case.
Consider `CCc1oc2ccccc2c1C(=O)c1cc(I)c(O)c(I)c1` [BENZIODARONE], for which the half-maximal activity concentration (AC50) in [8] is greater than 30 µM; in [11] it was greater than 30 µM; in assay [9], 12.6 µM; in assay [10], greater than 1 µM.
As to `Nc1nc(NC2CC2)c2ncn([C@H]3C=C[C@@H](CO)C3)c2n1` [ABACAVIR], the AC50 in [2], in assay [3], in [4] and in assay [5] was greater than 30 µM throughout.
For the molecule `CNC1Cc2ccccc2N(C)c2ccccc21` (stereo not given) [METAPRAMINE], the AC50 in assay [1] was greater than 30 µM; in assay [2] it was 14 µM; in assay [3], greater than 30 µM.
Consider `C1CCC(C(CC2CCCCN2)C2CCCCC2)CC1` (stereo not given) [PERHEXILINE], for which the AC50 in assay [1] was greater than 3 µM; in assay [3] it was greater than 30 µM.
As to `CN(C)CCC=C1c2ccccc2C(C)(C)c2ccccc21`, the AC50 in [1] was greater than 30 µM; in assay [2], 0.24 µM; in assay [3], greater than 30 µM; in assay [6] it was 4.34 µM.
Regarding `COCCCN1CCC(NC(=O)c2cc(Cl)c(N)c3c2OCC3)CC1` [PRUCALOPRIDE], the AC50 in assay [1], in [2], in assay [3], in [8], in assay [9] and in assay [6] was greater than 30 µM each time. For the same molecule, the concentration at half-maximal activity (AC50) in [10] was greater than 30 µM.
Take `Cc1c(C(=O)NN2CCCCC2)nn(-c2ccc(Cl)cc2Cl)c1-c1ccc(Cl)cc1` [RIMONABANT]: the concentration at half-maximal activity (AC50) in assay [1] was greater than 30 µM; in [2], greater than 30 µM; in assay [4], 29.6 µM; in assay [5] it was 18.6 µM; in assay [6] it was 14 µM.
As for `COc1ccc(CC(C)(C)NC[C@H](O)c2cc(O)cc3c2OCC(=O)N3)cc1` [OLODATEROL], the AC50 is 29 µM in assay [1], 0.0608 µM in assay [2], greater than 30 µM in assay [3] and 6.65 µM in assay [6].
In the case of `CC(=O)Nc1ccc(O)cc1` [ACETAMINOPHEN], the AC50 in assay [1], in assay [7], in assay [3], in assay [8], in [9] and in [6] was greater than 30 µM in each case. Besides, the half-maximal activity concentration (AC50) in [10] was greater than 30 µM.
On to `C[C@H]1CNCCc2ccc(Cl)cc21` [LORCASERIN], for which the AC50 in [1] is 4.4 µM; in assay [3], greater than 30 µM.
On to `CN(C)CCn1nnnc1SCC1=C(C(=O)O)N2C(=O)[C@@H](NC(=O)Cc3csc(N)n3)[C@H]2SC1` [CEFOTIAM], for which the AC50 in [7], in assay [8], in [9] and in [10] was greater than 30 µM in each case.
Turning to `COc1cc2nc(N(C)CCCNC(=O)C3CCCO3)nc(N)c2cc1OC` (stereo not given) [ALFUZOSIN], the AC50 in [2], in assay [3], in [4], in assay [5] and in assay [6] was greater than 30 µM throughout.
Turning to `N[C@@H]1[C@H]2CN(c3nc4c(cc3F)c(=O)c(C(=O)O)cn4-c3ccc(F)cc3F)C[C@@H]12` [TROVAFLOXACIN], the AC50 in [1], in assay [3] and in assay [6] was greater than 30 µM throughout.
Consider `C=CCc1ccccc1OCC(O)CNC(C)C` (stereo not given) [ALPRENOLOL], for which the AC50 in assay [1] was 4.8 µM; in assay [7] it was greater than 0.3 µM; in assay [2] it was 11.5 µM; in assay [3] it was greater than 30 µM; in assay [4], greater than 30 µM; in [5] it was greater than 30 µM. Further, the AC50 in assay [8] was greater than 0.3 µM; in assay [9] it was greater than 0.3 µM; in [6], 16 µM; in assay [10] it was greater than 0.3 µM.
`Cc1cc(C#N)cc(C)c1Oc1nc(Nc2ccc(C#N)cc2)nc(N)c1Br` [ETRAVIRINE]: the AC50 was greater than 30 µM in [8], 6.28 µM in assay [11], 5.88 µM in assay [9] and greater than 3 µM in assay [10].
With `c1cnc(N2CCN(Cc3ccc4c(c3)OCO4)CC2)nc1` [PIRIBEDIL], the AC50 was 20 µM in assay [1], 12 µM in assay [2], greater than 30 µM in [3] and 2.3 µM in assay [6].
Turning to `COC(c1ccccc1)(c1ccccc1)[C@H](Oc1nc(C)cc(C)n1)C(=O)O` [AMBRISENTAN], the AC50 in assay [7], in assay [8], in assay [9] and in assay [10] was greater than 30 µM throughout.
Turning to `CCOC(=O)[C@H](CCc1ccccc1)N[C@@H](C)C(=O)N1[C@H](C(=O)O)C[C@H]2CCCC[C@@H]21` [TRANDOLAPRIL], the half-maximal activity concentration (AC50) in [7], in assay [8], in assay [9] and in assay [10] was greater than 30 µM throughout.
